The text below walks through data of patent publication US5661165A, “((4-phenyl-1,2,5-thiadiazol-3-yl)oxy)methyl ester thiocyanic acid compounds, compositions containing them and their use as antimicrobial and marine antifouling agents” (The Dow Chemical Company, priority 1996, dated 1997).

In experiment [1] the test system is Saccharomyces cerevisiae (Sc). Nature of the experiment: MIC against yeast/fungi (malt yeast agar). The following applies: 30° C., yeast read after 48 h, read-out: Minimum Inhibitory Concentration, Sc. It is filed as cell-based, Saccharomyces cerevisiae ATCC 4105. The method, then: (§1) The antimicrobial activity of the compounds of the present invention is set forth as the minimum inhibitory concentration (MIC) for the active compounds and is determined for nine (9) bacteria, using nutrient agar, and seven (7) yeast and fungi, using malt yeast agar. This determination is conducted using a one percent solution of the test compound prepared in a mixture of acetone and water.
(§2) Malt yeast agar is prepared by adding 3 g yeast extract and 45 g malt agar per liter of deionized water. The specific agar is dispensed in 30 mL aliquots into 25×200 mm test tubes, capped and autoclaved for 15 minutes at 115° C.
(§3) The test tubes containing the agar are cooled in a water bath until the temperature of the agar is 48° C. Then, an appropriate amount of the one percent solution of the test compound is added (except in the controls where no compound is added) to the respective test tubes so that the final concentrations are 500, 250, 100, 50, 25, 10, 5, 2.5, 1.0 and zero parts per million of the test compound in the agar, thus having a known concentration of test compound dispersed therein. The contents of the test tubes are then transferred to respective petri plates. After drying for 24 hours, the petri plates containing nutrient agar are inoculated with bacteria and those containing malt yeast agar are inoculated with yeast and fungi.
(§4) The inoculation with the yeast and fungi is accomplished as follows. Cultures of yeast and fungi are incubated for seven days on malt yeast agar at 30° C. These cultures are used to prepare suspensions by the following procedure. A suspension of each organism is prepared by adding 10 mL of sterile saline and 10 microliters of octylphenoxy polyethoxy ethanol to the agar slant of yeast or fungi. The sterile saline/octylphenoxy polyethoxy ethanol solution is then agitated with a sterile swab to suspend the microorganism grown on the slant. Each resulting suspension is diluted into sterile saline (1 part suspension to 9 parts sterile saline). Aliquots of these dilutions are placed in individual wells of Steer's Replicator and petri plates inoculated as previously described. The petri plates are incubated at 30° C. and read after 48 hours for yeast and 72 hours for fungi.
(§5) Table I lists the bacteria, yeast and fungi used in the MIC test described above along with their respective American Type Culture Collection (ATCC) identification numbers.

Experiment [2] has as its system Psuedomonas aeruginosa (Pa). Nature of the experiment: MIC against bacteria (nutrient agar). It is filed as cell-based, Psuedomonas aeruginosa ATCC 10145. The following applies: 30° C., 48 h, read-out: Minimum Inhibitory Concentration, Pa. The procedure: as §1
Nutrient agar is prepared at pH 6.8, representing a neutral medium, and at pH 8.2, representing an alkaline medium. The nutrient agars are prepared by adding 23 g of nutrient agar to one-liter of deionized water. In addition, the alkaline medium is prepared by adjusting a 0.04M solution of N-[tris-(hydroxymethyl)methyl]-glycine buffered deionized water with concentrated sodium hydroxide to a pH of 8.5.
as §3
The inoculation with bacteria is accomplished by using the following procedure. Twenty-four hour-cultures of each of the bacteria are prepared by incubating the respective bacteria in tubes containing nutrient broth for 24 hours at 30° C. in a shaker. Dilutions of each of the 24 hour-cultures are made so that nine separate suspensions (one for each of the nine test bacteria) are made, each containing 10^8 colony forming units (CFU) per mL of suspension of a particular bacteria. Aliquots of 0.3 mL of each of the bacterial suspensions are used to fill the individual wells of Steer's Replicator. For each microbial suspension, 0.3 mL was used to fill three wells (i.e., three wells of 0.3 mL each) so that for the nine different bacteria, 27 wells are filled. The Steer's Replicator is then used to inoculate both the neutral and alkaline pH nutrient agar petri plates.
The inoculated petri plates are incubated at 30° C. for 48 hours and then read to determine if the test compound which is incorporated into the agar prevented growth of the respective bacteria.
as §5

The test system of the next experiment is Bacillus subtilis (Bs). Nature of the experiment: MIC against bacteria (nutrient agar). The class given is cell-based, Bacillus subtilis ATCC 8473. The following applies: 30° C., 48 h, read-out: Minimum Inhibitory Concentration, Bs.
The subject of another experiment is Candida albicans (Ca). In words: MIC against yeast/fungi (malt yeast agar). The class given is cell-based, Candida albicans ATCC 10231. The following applies: 30° C., yeast read after 48 h, read-out: Minimum Inhibitory Concentration, Ca. The procedure: as §1, §2, §3, §4, §5
A further experiment has as its system Fusarium oxysporum (Fo). In words: MIC against yeast/fungi (malt yeast agar). The following applies: 30° C., fungi read after 72 h, read-out: Minimum Inhibitory Concentration, Fo. It is filed as cell-based, Fusarium oxysporum ATCC 48112. The method, then:
as §1, §2, §3, §4, §5

Another experiment concerns Proteus vulgaris (PV). Nature of the experiment: MIC against bacteria (nutrient agar). It is filed as cell-based, Proteus vulgaris ATCC 881. The following applies: 30° C., 48 h, read-out: Minimum Inhibitory Concentration, Pv.
A further experiment deals with marine organisms. In words: Marine antifouling rating on test panels exposed to the marine environment. The procedure: Test panels are prepared from clear, rigid polyvinyl chloride film that is 0.381×10^-3 m thick and has one textured surface. The test panels are 0.1524 m by 0.1524 m squares that have 0.00635 m holes punched at corners on 0.127 m centers. A 0.102 square template, with a 0.067 m diameter hole at the center, is attached to the center of the textured surface of the test panels.
The candidate marine antifoulant compound (1.0 g) is stirred into a resinous latex binder (9.0 g). A portion of the compound/binder mixture (1.5 g) is added to the center of the test panel and uniformly spread over the circular area inside the template.
Water is added dropwise as needed to properly spread the compound/binder mixture. The template prevents the compound/binder mixture from spreading beyond the uncovered area. The test panel is allowed to sit for between 10 to 30 minutes until the edge of the spread compound/binder mixture has dried. The template is then removed. The test panel is then allowed to dry for 8 to 12 hours at room temperature.
Two test panels are prepared for each candidate marine antifoulant compound. Two control test panels are also prepared by only treating with the resinous latex binder. One test panel of each candidate marine antifoulant compound is attached over a white background to the topside of an exposure support apparatus. The second test panel is attached over a black background to the underside of the exposure support apparatus. The exposure support apparatus is placed horizontally 0.0254 m under a marine surface with the white background topside facing up. […]
After being removed from the exposure support apparatus, each test panel is inspected and rated for marine organism growth on both the treated and untreated areas of the test panel. The marine organisms present on the treated and untreated areas are noted. The presence of algae spores and bacterial slime are noted but not included in rating each test panel. The test panels are rated on a scale from 10 (representing completely free of marine organism growth) to 0 (representing completely covered with marine organism growth).
In Table IV, the marine antifouling rating values for ((4-phenyl-1,2,5-thiadiazol-3-yl)oxy)methyl ester is set forth, as well as the ratings for control panels (with no marine antifouling compound and referred to as "Control").

Where [3] appears, read: 16 weeks, scale 10 (completely free of growth) to 0 (completely covered), control --.

Molecules are shown by their SMILES. Values after ≈ are worked out from the molar mass of the structure shown. Read-outs that look alike come from different tables or passages of the source.

Consider `N#CSCOc1nsnc1-c1ccccc1` [Example I, ((4-Phenyl-1,2,5-thiadiazol-3-yl)oxy)methyl ester thiocyanic acid], for which the MIC in experiment [1] was 2.5 µg/mL (≈ 10 µM); in experiment [2] (pH 6.8, nutrient agar), more than 500 µg/mL; in experiment [2] (pH 8.2, nutrient agar), more than 500 µg/mL; in the experiment with Bacillus subtilis (Bs) (pH 6.8, nutrient agar) it was less than 10 µg/mL; with Bacillus subtilis (Bs) (pH 8.2, nutrient agar) it was less than 10 µg/mL; with Candida albicans (Ca), 2.5 µg/mL (≈ 10 µM). Also, the MIC in the experiment on Fusarium oxysporum (Fo) is 5 µg/mL (≈ 20.1 µM); with Proteus vulgaris (PV) (pH 6.8, nutrient agar) it was more than 500 µg/mL; in the experiment with Proteus vulgaris (PV) (pH 8.2, nutrient agar), 500 µg/mL (≈ 2010 µM). Also, the “Marine Antifouling Rating, Bottom Panel” value turned out to be 9 in the experiment on marine organisms (6 weeks, scale 10 (completely free of growth) to 0 (completely covered), control 0); 7 in the experiment with marine organisms (10 weeks, scale 10 (completely free of growth) to 0 (completely covered), control 0); 2 in the experiment with marine organisms (setting [3]). The “Marine Antifouling Rating, Top Panel” value with marine organisms (6 weeks, scale 10 (completely free of marine organism growth) to 0 (completely covered), control 6) came to 8; in the experiment on marine organisms (10 weeks, scale 10 (completely free of growth) to 0 (completely covered), control 3) it was 3; in the experiment on marine organisms (setting [3]), 8.
